This test deals with CHO DG44 cells. The test is described as follows: Combination with IDMTs, IgG batch yield by ELISA (Example 6). Conditions: VPA 0.5 mmol/l; no addition = 100%; day 5 after transfection. Type of test: cell-based, Chinese Hamster. The protocol: 10 million suspension-adapted HEK293E cells were resuspended in 0.5 ml of Ex-Cell 293 HEK 293 serum-free medium with 4 mmol/l L-glutamine (Cat. No. 14571C-[…]; Lot No. 6A0093; SAFC Biosciences, Lenexa, Kans., USA, “Ex-Cell” medium; note: “Ex-Cell” medium-as used herein-refers to a medium comprising 4 mmol/l L-glutamine) in a 50-ml filter tube each (TPP AG, Trasadingen, Switzerland; Cat. No. 87050, Lot 20050174). In a separate set, 10 million suspension-adapted CHO DG44 cells were resuspended in 0.5 ml of ProCHO5 serum-free medium with 4 mmol/[…] hypoxanthine and 0.194 g/l thymidine (BioWhittaker (Lonza), Belgium; Cat. No. BE12-[…]; Lot No. 7MB0040; “ProCHO5” medium; note: “ProCHO5” medium-as used herein-refers to a medium comprising 4 mmol/[…] hypoxanthine and 0.194 g/l thymidine) in a 50-ml filter tube each (TPP AG, Trasadingen, Switzerland; Cat. No. 87050, Lot 20050174). Then 12.5 μg plasmid DNA at a concentration of 1 μg/μl was added in each tube with the following composition 50% (6.25 μg) p-LC (SEQ ID NO: 1) 50% (6.25 μg) p-HC (SEQ ID NO: 3). Plasmid p-LC comprises the genetic information for the production of the light chain of an IgG antibody, plasmid p-HC comprises the genetic information for the production of the heavy chain of an IgG antibody. The particular vector constructs used in the present invention can also be obtained from the inventors. The inventors can be contacted via e-mail at […]. Moreover, commercial services do exist that produce any desired nucleotide sequence even comprising several kilobase pairs including complete expression cassettes in plasmid backgrounds (e.g., Invitrogen, Carlsbad, USA; Geneart, Germany.) Thus, providing the genetic sequence information of the plasmids should enable one of ordinary skill in the art to order the plasmids of the present invention at one of the commercial services listed. After shortly mixing the DNA with the cells by gentle shaking, 25 μg of 25-kd linear polyethyleneimine (“PEI”; Polysciences, Eppelheim, Germany; [2]) were added at a concentration of 1 μg/μl to each of the tubes. After shortly mixing by gentle shaking, the filter tubes containing the cells together with the DNA and PEI were transferred into an orbital shaker (Kühner Shaker Cabinet ISF-4-W, “Kühner shaker”, Kühner AG, Birsfelden, Switzerland), and the cells were incubated for 4 hours at 37° C. in a 5% CO2 atmosphere under shaking at 180 rpm. After that time, 4.5 ml of Ex-Cell medium were added to each of the filter tubes containing HEK 293 cells and 4.5 ml of Pro-CHO5 were added to each of the filter tubes containing CHO DG44 cells. Then, valproic acid was added to each of the tubes at the corresponding final concentration. In addition, the following chemicals were added to the corresponding tubes at a final concentration of: […] Azacytidine was purchased from Sigma-Aldrich Chemie GmbH, Industriestrasse 25, CH-9471 Buchs SG, Catalog Number A1287-1 VL. RG108 was purchased from Sigma-Aldrich Chemie GmbH, Industriestrasse 25, CH-9471 Buchs SG, Catalog Number R8279-10MG. The cells then were returned into the Kuhner shaker and incubated at 37° C. in a 5% CO2 atmosphere under shaking at 180 rpm. […] In short, Goat anti-human kappa light chain IgG (Biosource) was used for coating the ELISA-plates, and with AP-conjugated goat anti-human gamma chain IgG (Biosource) the synthesized IgG1 was detected. […] Absorption was measured at 405 nm against 490 nm using a microplate reader (SPECTRAmaxTM340; Molecular Devices, Palo Alto, Calif., USA).
In general terms: In an ELISA, binding on a coated surface is turned into a signal by an enzyme label.

In the case of `CCCC(CCC)C(=O)O` [VPA, valproic acid], the “Fold increase in batch yield over control” value is recorded as 170% ± 20%.

The values above are taken from US20090023186A1, “USE OF VALPROIC ACID FOR ENHANCING PRODUCTION OF RECOMBINANT PROTEINS IN MAMMALIAN CELLS” (EXCELLGENE SA, priority 2007, published 2009).
